Assay results: patent US6632816B1, “Aromatic derivatives as HIV aspartyl protease inhibitors” (Pharmacor Inc., priority 2002, dated 2003)
pEC50, pKi: −log10 of the molar value.

Experiments:
[1] = tested on: HIV-1 laboratory viral strain NL4.3 (wild type virus); experiment: Anti-viral assay in vitro (MTT, infected MT-4 cells); type: cell-based; details: Human immunodeficiency virus 1, MT4, 144 h; MT-4 cells infected with NL4.3, six days, MTT assay; read-out: EC50
Experimental: Anti-viral and Cytotoxicity Assays In Vitro
To evaluate the EC50 of our compounds, various drug concentrations are incubated with the infected cell for six days and then the metabolic activity of the cells is monitored by the MTT assay. (See A. J. Japour et al, Antimicrobial Agents and Chemotherapy, 37, 1095-1101, 1993 and R. Pauwels et al. Journal of Virological Methods, 20, 309-321, 1988)
We use the laboratory viral strain NL4.3 as wild type virus and the cell line used is MT-4 which is a T-cell line highly sensitive to HIV-1. We also use some WT clinical strains. To address the resistance issue we assay the inhibitors with NL4.3 mutants which are designed to be resistant to specific commercially,available inhibitors

HIV protease = HIV protease (Human immunodeficiency virus type 1 group M subtype B, UniProt P04585); experiment: biochemical
Description: Enzymatic Assay for Determining the Inhibition Constant (Ki) of Synthetic Compounds Targeting the HIV Protease
This is a fluorometric assay based on the cleavage by protease of a substrate carrying a donor group (EDANS) and an acceptor group (DABCYL) on each side of the cleavage site, interacting together through fluorescence resonance energy transfer (FRET) as described by Matayoshi et al. (Science 247:954-954, 1990).
After calculation of Vo and Vi, the inhibition constant (Ki) of the compound is determined using the equation of Henderson: [formula]
where Vo=the enzyme's initial velocity
Vi=the enzyme velocity in the presence of the inhibitory compound,
[I]=inhibitor concentration, [S]=substrate concentration,
Km=Michaelis-Menten constant and Kiapp=apparent Ki
Graphs are traced and the Ki determined using GraphPad Prism software v.

Compound | pEC50 [1] | pKi (HIV protease)
CC(C)CN([C@H](CO)CCCCNC(=O)[C@H](Cc1ccc2ccccc2c1)NC(=O)c1cnccn1)S(=O)(=O)c1ccc(N)cc1 [Example 62, (1S,5S)-Pyrazine-2-carboxylic Acid (1-{5-[(4-Amino-benzenesulfonyl)-isobutyl-amino]-6-hydroxy-hexylcarbamoyl}-2-naphthalen-2-yl-ethyl)-amide] | 6.44 | 8.68
CC(C)CN([C@H](CO)CCCCNC(=O)[C@H](Cc1cccc2ccccc12)NC(=O)N1CCOCC1)S(=O)(=O)c1ccc(F)c(N)c1 [Example 53, (1S,5S)-Morpholine-4-carboxylic Acid (1-{5-[(3-Amino-4-fluoro-benzenesulfonyl)-isobutyl-amino]-6-hydroxy-hexylcarbamoyl}-2-naphthalen-1-yl-ethyl)-amide] | 7.40 | 9.20
COC(=O)N[C@@H](Cc1ccccc1-c1cccc(F)c1)C(=O)NCCCC[C@@H](CO)N(CC(C)C)S(=O)(=O)c1ccc(N)cc1 [Example 52, (1S,5S)-[1-{5-[(4-Amino-benzenesulfonyl)-isobutyl-amino]-6-hydroxy-hexylcarbamoyl}-2-(3′-fluoro-biphenyl-2-yl)-ethyl]-carbamic Acid Methyl Ester] | 6.82 | 9.15
COC(=O)N[C@H](C(=O)NCCCC[C@@H](CO)N(CC(C)C)S(=O)(=O)c1ccc(F)c(N)c1)C(c1ccccc1)c1ccccc1 [Example 58, (1S,5S)-(1-{5-[(3-Amino-4-fluoro-benzenesulfonyl)-isobutyl-amino]-6-hydroxy-hexylcarbamoyl}-2,2-diphenyl-ethyl)-carbamic Acid Methyl Ester] | 7.60 | 9.19
CC(C)CN(C(CO)CCCCNC(=O)C(NC(=O)C1CCOC1)C(c1ccccc1)c1ccccc1)S(=O)(=O)c1ccc(N)cc1 [Example 77, (1S,3R,S,5S)-Tetrahydro-furan-3-carboxylic Acid (1-{5-[(4-Amino-benzenesulfonyl)-isobutyl-amino]-6-hydroxy-hexylcarbamoyl}-2,2-diphenyl-ethyl)-amide] | 7.17 | 9.24
CC(=O)N[C@H](C(=O)NCCCC[C@@H](CO)N(CC(C)C)S(=O)(=O)c1ccc(N)cc1)C(c1ccccc1)c1ccccc1 [Example 71, (2S,5S)-2-Acetylamino-N-{5-[(4-amino-benzenesulfonyl)-isobutyl-amino]-6-hydroxy-hexyl}-3,3-diphenyl-propionamide] | 7.18 | 8.82
CC(C)CN([C@H](CO)CCCCNC(=O)[C@H](Cc1cccc2ccccc12)NC(=O)N1CCOCC1)S(=O)(=O)c1ccc(N)cc1 [Example 32, (1S,5S)-Morpholine-4-carboxylic Acid (1-{5-[(4-Amino-benzenesulfonyl)-isobutyl-amino]-6-hydroxy-hexylcarbamoyl}-2-naphthalen-1-yl-ethyl)-amide] | 7.52 | 9.11
COC(=O)N[C@H](C(=O)NCCC[C@@H](CO)N(CC(C)C)S(=O)(=O)c1ccc(N)cc1)C(c1ccccc1)c1ccccc1 [Example 10, (1S,4S)-(1-{4-[(4-Amino-benzenesulfonyl)-isobutyl-amino]-5-hydroxy-pentylcarbamoyl}-2,2-diphenyl-ethyl)-carbamic Acid Methyl Ester] | 6.29 | 8.30
COC(=O)N[C@@H](Cc1ccc2ccccc2c1)C(=O)NCCC[C@@H](CO)N(CC(C)C)S(=O)(=O)c1ccc(N)cc1 [Example 1, (1S,4S)-(1-{4-[(4-Amino-benzenesulfonyl)-isobutyl-amino]-5-hydroxy-pentylcarbamoyl}-2-naphthalen-2-yl-ethyl)-carbamic Acid Methyl Ester] | 5.83 | 8.14
COC(=O)N[C@H](C(=O)NCCCC[C@@H](CO)N(CC(C)C)S(=O)(=O)c1ccc(N)c(Cl)c1)C(c1ccccc1)c1ccccc1 [Example 50, (1S,5S)-(1-{5-[(4-Amino-3-chloro-benzenesulfonyl)-isobutyl-amino]-6-hydroxy-hexylcarbamoyl}-2,2-diphenyl-ethyl)-carbamic Acid Methyl Ester] | 7.02 | 9.11
CC(C)CN([C@H](CO)CCCCNC(=O)[C@H](Cc1cccc2ccccc12)NC(=O)N1CCOCC1)S(=O)(=O)c1ccc2c(c1)OCO2 [Example 66, (1S,5S)-Morpholine-4-carboxylic Acid (1-{5-[(Benzo[1,3]dioxole-5-sulfonyl)-isobutyl-amino]-6-hydroxy-hexylcarbamoyl}-2-naphthalen-1-yl-ethyl)-amide] | 6.39 | 8.96
COC(=O)C(=O)N[C@@H](Cc1cccc2ccccc12)C(=O)NCCC[C@@H](CO)N(CC(C)C)S(=O)(=O)c1ccc(N)cc1 [Example 11, (1S,4S)-N-(1-{4-[(4-Amino-benzenesulfonyl)-isobutyl-amino]-5-hydroxy-pentylcarbamoyl}-2-naphthalen-1-yl-ethyl)-oxalamic Acid Methyl Ester] | 4.19 | 8.30
COC(=O)N[C@@H](Cc1ccccc1-c1cccc(F)c1)C(=O)NCCCC[C@@H](CO)N(CC(C)C)S(=O)(=O)c1ccc(F)c(N)c1 [Example 56, (1S,5S)-[1-{5-[(3-Amino-4-fluoro-benzenesulfonyl)-isobutyl-amino]-6-hydroxy-hexylcarbamoyl}-2-(3′-fluoro-biphenyl-2-yl)-ethyl]-carbamic Acid Methyl Ester] | 6.52 | 8.89
CC(C)CN(C(CO)CCCCNC(=O)C(Cc1ccc2ccccc2c1)NC(=O)C1CCOC1)S(=O)(=O)c1ccc(N)cc1 [Example 37, (1S,3R,S,5S)-Tetrahydro-furan-3-carboxylic Acid (1-{5-[(4-Amino-benzenesulfonyl)-isobutyl-amino]-6-hydroxy-hexylcarbamoyl}-2-naphthalen-2-yl-ethyl)-amide] | 6.49 | 8.57
COC(=O)N[C@@H](Cc1ccccc1-c1ccc(OC)cc1)C(=O)NCCCC[C@@H](CO)N(CC(C)C)S(=O)(=O)c1ccc(N)cc1 [Example 31, (1S,5S)-[1-{5-[(4-Amino-benzenesulfonyl)-isobutyl-amino]-6-hydroxy-hexylcarbamoyl}-2-(4′-methoxy-biphenyl-2-yl)-ethyl]-carbamic Acid Methyl Ester] | 6.93 | 9.18
CC(=O)N[C@@H](Cc1ccc2ccccc2c1)C(=O)NCCCC[C@@H](CO)N(CC(C)C)S(=O)(=O)c1ccc(N)cc1 [Example 48, (2S,5S)-2-Acetylamino-N-{5-[(4-amino-benzenesulfonyl)-isobutyl-amino]-6-hydroxy-hexyl}-3-naphthalen-2-yl-propionamide] | 6.02 | 8.44
CC(C)CN([C@H](CO)CCCCNC(=O)[C@H](Cc1ccc2ccccc2c1)NC(=O)C(C)(C)C)S(=O)(=O)c1ccc(N)cc1 [Example 46, (1S,5S)-N-(1-{5-[(4-Amino-benzenesulfonyl)-isobutyl-amino]-6-hydroxy-hexylcarbamoyl}-2-naphthalen-2-yl-ethyl)-2,2-dimethyl-propionamide] | 6.78 | 9.09
CC(C)CN([C@H](CO)CCCCNC(=O)[C@H](Cc1ccc2ccccc2c1)NC(=O)c1ccncc1)S(=O)(=O)c1ccc(N)cc1 [Example 55, (1S,5S)-N-(1-{5-[(4-Amino-benzenesulfonyl)-isobutyl-amino]-6-hydroxy-hexylcarbamoyl}-2-naphthalen-2-yl-ethyl)-isonicotinamide] | 6.96 | 8.89
